This experiment concerns HCT 116 cells. The experiment in a line: Antiproliferative activity in HCT 116 human colon cancer cells (XTT). The settings on record: 72 hours incubation with compound, XTT absorbance 490 nm minus 655 nm, read-out: GI50 (concentration of 50% proliferation inhibition). In kind it is cell-based. The protocol:
HCT 116 cells (ATCC No.: CCL-247) were placed on a 96-well microliter plate (Nunc, 167008) at a density of 1×10^3 cells/well. The plate was incubated in a 5% CO2 incubator at 37° C. for 24 hours, and then to the plate was added test compounds diluted stepwise to […] in total, and the plate was further incubated in a 5% CO2 incubator at 37° C. for 72 hours. To the culture medium, the XTT (sodium 3′-[1-(phenylaminocarbonyl)-3,4-tetrazolium)-bis(4-methoxy-6-nitro)benzenesulfonic acid hydrate) labeling mixture (Roche Diagnostics, 1465015) was dispensed in […] portions, then the plate was incubated in a 5% CO2 incubator at 37° C. for 1 hour, and the absorbance was measured at 490 nm and 655 nm with a microplate spectrophotometer (Bio-Rad, Model 550). The inhibitory activity against cell proliferation was shown as a concentration of 50% proliferation inhibition, GI50.
GI50 calculation method: The value (difference in absorbance) was calculated by subtracting the absorbance at 655 nm from the absorbance at 490 nm of each well. […]
Background: Tetrazolium dyes change colour on reduction, which living cells bring about.

Each structure is given as a SMILES string.

With `CC(=O)NC1=NN(C(C)=O)C(C)(c2ccccc2)S1` (centres unmarked) [Compound 1], the GI50 is 1000 nM. As for `CC(=O)N(C)C1=NN(C(C)=O)C(C)(c2ccccc2)S1` (centres unmarked) [Compound 7], the GI50 turned out to be 480 nM.
